The text below walks through data of patent US4000297A, “N-p-chlorobenzoyl tryptophane, salts and compositions thereof” (priority 1971, dated 1976).

Common to all, as to assay type: in vivo
Data set [1] relates to gastric secretion. The data set is described as follows: Anti-secretive activity in the rat by gastric stimulus, oral. To be noted: oral (Table 1); for ED50: read-out: Activity B: anti-secretive activity ED50.
Procedure: *3 Anti-secretive activity in the rat by gastric stimulus, ED50 mg/k
Data set [2] in a line: Acute toxicity (DL50) in the mouse. The note with it: iv (Table 1); for LD50: in vivo, read-out: DL50 value. An excerpt: *1 DL50 in the mouse mg/kg iv.
Examples of differences between toxicity (DL50 in
the mouse) by intravenous administration and oral
administration in mg/kg. Variation in therapeutic

For data set [3], the system named is gastric secretion. Put plainly: Anti-secretive activity in the rat with lig. pylorus, iv. The note with it: for ED50: read-out: Activity A: anti-secretive activity ED50.
Data set [4] deals with gastric secretion. Put plainly: Comparison of antisecretive activity, rats with tied pylorus, oral aqueous suspension. To be noted: oral. As to the method: (*)The antisecretive activity is defined as the dose in mg/kg of body
weight of the animal, which reduces the gastric secretion by 50%. The
evaluation is effected by considering the decrease in quantity of secrete
gastric juice as compared with controls. Rats of an average weight of 200
± 20 grams are employed of which the lower part of the stomach at the
level of the pylorus is tied to collect the gastric juice during the
indicated periods. The preparations are administered orally in the form o

Where [5] appears, read: rat with lig. pylorus, iv (Table 1).

Where a name gives a salt, the structure may show the parent alone. Read-outs that look alike come from different tables or passages of the source.

For orientation: ED50 means the dose that gives a 50% effect, or the effect in half of the subjects. Turning to `O=C(N[C@@H](Cc1c[nH]c2ccccc12)C(=O)O)OCc1ccc(Cl)c(Cl)c1` [Ex.16 (CR469), N-(3,4-dichloro)-carbobenzoxy-L-tryptophane], the ED50 in data set [1] stood at 104 mg/kg; in data set [3] (Rattus norvegicus, iv) it was 137 mg/kg. The LD50 in data set [2] (iv) came to 208 mg/kg.
For the compound `O=C(Cc1ccc(Cl)cc1)N[C@@H](Cc1c[nH]c2ccccc12)C(=O)O` [Ex.47 (CR584), N-p-chlorophenylacetyl-L-tryptophane], the median effective dose (ED50) was 270 mg/kg in data set [1] and 487 mg/kg in data set [3] (setting [5]). In addition, in data set [2], the LD50 came to 545 mg/kg.
Consider `O=C(NC(Cc1c[nH]c2ccccc12)C(=O)O)OCc1ccc(Cl)cc1` (racemic) [Ex. 4 (CR463), N-p-chloro-carbobenzoxy-DL-tryptophane], for which the ED50 in data set [1] was determined as 130 mg/kg; in data set [3] (Rattus norvegicus, iv), 161 mg/kg. Also, the LD50 in data set [2] (iv) came out at 217 mg/kg.
`O=C(O)c1ccc(NC(=O)[C@H](Cc2c[nH]c3ccccc23)NC(=O)c2ccccc2)cc1` [Ex.42 (CR404), N-benzoyl-L-tryptophyl-p-aminobenzoic acid]: the ED50 in data set [1] worked out at 220 mg/kg; in data set [3] (setting [5]) it was 284 mg/kg. In data set [2], the LD50 worked out at 500 mg/kg.
Consider `O=C(N[C@@H](Cc1c[nH]c2ccccc12)C(=O)O)OCc1cccc(Cl)c1` [Ex. 2 (CR527), N-m-chloro-carbobenzoxy-L-tryptophane], for which the ED50 stood at 147 mg/kg in data set [1] and 176 mg/kg in data set [3] (Rattus norvegicus, iv). The LD50 in data set [2] (iv) amounted to 450 mg/kg.
Consider `Nc1ccc(C(=O)N[C@@H](Cc2c[nH]c3ccccc23)C(=O)O)cc1` [CR 504 - Calcium salt], for which the “Antisecretive activity (dose which reduces the gastric secretion by 50%)” value in data set [4] (2.5 hrs, 150 min) is listed as 1480 mg/kg; in data set [4] (5 hrs, 300 min), 1865 mg/kg; in data set [4] (10 hrs, 600 min), over 2000 mg/kg.
For `O=C(N[C@@H](Cc1c[nH]c2ccccc12)C(=O)O)c1ccc([N+](=O)[O-])cc1` [Ex.29 (CR502), N-p-nitro-benzoyl-L-tryptophane. C2 H5 OH], the results for the median effective dose (ED50) in data set [1] and in data set [3] (setting [5]) were 270 mg/kg and 339 mg/kg, respectively. Besides, the LD50 in data set [2] was 806 mg/kg.
For the compound `O=C(N[C@@H](Cc1c[nH]c2ccccc12)C(=O)Nc1ccc(C(=O)OCc2ccccc2)cc1)OCc1ccccc1` [Ex.36 (CR430), Benzyl-N-carbobenzoxy-L-tryptophyl-p-aminobenzoate], the values for the ED50 in data set [1] and in data set [3] (setting [5]) were 520 mg/kg and 690 mg/kg, respectively. Also, the LD50 in data set [2] (iv) turned out to be 1000 mg/kg.
On to “N-p-chlorobenzoyl-L-tryptophyl-phenylacetic acid [Ex.46 (CR589)]”, for which, in data set [1], the “Activity B: anti-secretive activity ED50” value was determined as 120 mg/k. This compound also yielded a DL50 value in data set [2] of 295 mg/kg. Besides, the “Activity A: anti-secretive activity ED50” value in data set [3] (setting [5]) was 189 mg/kg.
On to `O=C(N[C@@H](Cc1c[nH]c2ccccc12)C(=O)Nc1ccc(C(=O)Oc2ccc(Cl)cc2Cl)cc1)OCc1ccccc1` [Ex.34 (CR432), 2,4-Dichlorophenyl-N-carbobenzoxy-L-tryptophyl-p-aminobenzoate], for which the ED50 was determined as 310 mg/kg in data set [1] and 370 mg/kg in data set [3] (setting [5]). In addition, the LD50 in data set [2] (iv) was 1000 mg/kg.
For the compound `O=C(N[C@@H](Cc1c[nH]c2ccccc12)C(=O)Nc1ccc(C(=O)Oc2ccccc2)cc1)OCc1ccccc1` [Ex.35 (CR411), Phenyl-N-carbobenzoxy-L-tryptophyl-p-aminobenzoate], the values for the ED50 in data set [1] and in data set [3] (setting [5]) were 460 mg/kg and 610 mg/kg, respectively. Also, the LD50 in data set [2] (iv) came out at 1000 mg/kg.
For `O=C(Cc1ccc(NC(=O)[C@H](Cc2c[nH]c3ccccc23)NC(=O)OCc2ccccc2)cc1)OCc1ccccc1` [Ex.39 (CR419), Benzyl-N-carbobenzoxy-L-tryptophyl-p-aminophenylacetate], in that order: 350 mg/kg, 430 mg/kg and 1000 mg/kg.
For the compound `O=C(N[C@@H](Cc1c[nH]c2ccccc12)C(=O)O)OCc1ccc(C(F)(F)F)cc1` [Ex.11 (CR515), N-p-trifluoromethyl-carbobenzoxy-L-tryptophane], the median effective dose (ED50) in data set [1] worked out at 92 mg/kg; in data set [3] (Rattus norvegicus, iv) it was 112 mg/kg. Also, the LD50 in data set [2] (iv) worked out at 175 mg/kg.
Regarding `O=C(N[C@@H](Cc1c[nH]c2ccccc12)C(=O)O)c1ccc(C(F)(F)F)cc1` [Ex.20 (CR505), N-p-trifluoromethyl-benzoyl-L-tryptophane], the median effective dose (ED50) in data set [1] is 110 mg/kg; in data set [3] (Rattus norvegicus, iv), 160 mg/kg. Also, the LD50 in data set [2] worked out at 210 mg/kg.
In the case of `CCOC(=O)c1ccc(NC(=O)[C@H](Cc2c[nH]c3ccccc23)NC(=O)c2ccccc2)cc1` [Ex.37 (CR402), Ethyl-N-benzoyl-L-tryptophyl-p-aminobenzoate], the values for the ED50 in data set [1] and in data set [3] (setting [5]) were 460 mg/kg and 310 mg/kg, respectively. In data set [2], the LD50 was 1000 mg/kg.
On to `O=C(N[C@@H](Cc1c[nH]c2ccccc12)C(=O)O)c1cccc(Cl)c1` [Ex.30 (CR546), N-m-chloro-benzoyl-L-tryptophane], for which the 50% effective dose (ED50) was 147 mg/kg in data set [1] and 210 mg/kg in data set [3] (Rattus norvegicus, iv). Also, the LD50 in data set [2] is 560 mg/kg.
With `O=C(O)Cc1ccc(NC(=O)[C@H](Cc2c[nH]c3ccccc23)NC(=O)OCc2ccccc2)cc1` [Ex.44 (CR435), N-carbobenzoxy-L-tryptophyl-p-aminophenylacetic acid], the ED50 is 210 mg/kg in data set [1] and 370 mg/kg in data set [3] (setting [5]). For the same compound, in data set [2] (iv), the LD50 amounted to 980 mg/kg.
`COc1ccc(C(=O)N[C@@H](Cc2c[nH]c3ccccc23)C(=O)O)cc1` [Ex.26 (CR507), N-p-methoxy-benzoyl-L-tryptophane]: the figures for the ED50 in data set [1] and in data set [3] (setting [5]) were 494 mg/kg and 437 mg/kg, respectively. Moreover, the LD50 in data set [2] stood at 1000 mg/kg.
Consider `O=C(N[C@@H](Cc1c[nH]c2ccccc12)C(=O)O)OCc1ccc(Cl)cc1Cl` [Ex.13 (CR470), N-(2,4-dichloro)-carbobenzoxy-L-tryptophane], for which the ED50 in data set [1] worked out at 97 mg/kg; in data set [3] (setting [5]), 130 mg/kg. Besides, the LD50 in data set [2] (iv) is 170 mg/kg.
In the case of `COC(=O)Cc1ccc(NC(=O)[C@H](Cc2c[nH]c3ccccc23)NC(=O)c2ccccc2)cc1` [Ex.40 (CR418), Methyl-N-benzoyl-L-tryptophyl-p-aminophenylacetate], the values for the ED50 in data set [1] and in data set [3] (setting [5]) were 180 mg/kg and 290 mg/kg, respectively. Also, the LD50 in data set [2] came out at 1000 mg/kg.
As for `N#Cc1ccc(COC(=O)N[C@@H](Cc2c[nH]c3ccccc23)C(=O)O)cc1` [Ex. 8 (CR496), N-p-cyano-carbobenzoxy-L-tryptophane], the ED50 in data set [1] worked out at 340 mg/kg; in data set [3] (Rattus norvegicus, iv) it was 202 mg/kg. For the same compound, the LD50 in data set [2] (iv) worked out at 1070 mg/kg.
With `CCOC(=O)c1ccc(NC(=O)[C@H](Cc2c[nH]c3ccccc23)NC(=O)OCc2ccccc2)cc1` [Ex.33 (CR401), Ethyl-N-carbobenzoxy-L-tryptophyl-p-aminobenzoate], the results for the 50% effective dose (ED50) in data set [1] and in data set [3] (setting [5]) were 320 mg/kg and 470 mg/kg, respectively. Also, the LD50 in data set [2] (iv) worked out at 1000 mg/kg.
`Cc1ccc(C(=O)NC(Cc2c[nH]c3ccccc23)C(=O)O)cc1` (racemic) [Ex.23 (CR555), N-p-toluyl-DL-tryptophane]: the ED50 came out at 172 mg/kg in data set [1] and 204 mg/kg in data set [3] (Rattus norvegicus, iv). Besides, the LD50 in data set [2] turned out to be 340 mg/kg.
With `O=C(N[C@@H](Cc1c[nH]c2ccccc12)C(=O)O)c1ccc(Br)cc1` [Ex.19 (CR503), N-p-bromo-benzoyl-L-tryptophane], the 50% effective dose (ED50) was found to be 85 mg/kg in data set [1] and 111 mg/kg in data set [3] (Rattus norvegicus, iv). In data set [2], the LD50 was 360 mg/kg.
With `O=C(N[C@@H](Cc1c[nH]c2ccccc12)C(=O)O)OCc1c(Cl)cccc1Cl` [Ex.14 (CR495), N-(2,6-dichloro)-carbobenzoxy-L-tryptophane], the results for the ED50 in data set [1] and in data set [3] (setting [5]) were 108 mg/kg and 132 mg/kg, respectively. For the same compound, the LD50 in data set [2] (iv) came out at 268 mg/kg.
On the same counts, the results for `O=C(N[C@@H](Cc1c[nH]c2ccccc12)C(=O)O)OCc1cccc(Cl)c1Cl` [Ex.15 (CR499), N-(2,3-dichloro)-carbobenzoxy-L-tryptophane] are 60 mg/kg, 100 mg/kg and 175 mg/kg.
For “N-p-bromobenzoyl-L-tryptophyl-phenylacetic acid [Ex.45 (CR511)]”, in data set [1], the “Activity B: anti-secretive activity ED50” value was determined as 281 mg/k. The DL50 value in data set [2] was 690 mg/kg. Besides, the “Activity A: anti-secretive activity ED50” value in data set [3] (setting [5]) was determined as 246 mg/kg.
Turning to `Cc1ccc(COC(=O)N[C@@H](Cc2c[nH]c3ccccc23)C(=O)O)cc1Cl` [Ex.17 (CR497), N-(3-chloro-4-methyl)-carbobenzoxy-L-tryptophane], the ED50 in data set [1] turned out to be 196 mg/kg; in data set [3] (Rattus norvegicus, iv), 231 mg/kg. For the same compound, the LD50 in data set [2] (iv) stood at 190 mg/kg.
With `O=C(O)c1ccc(C(=O)N[C@@H](Cc2c[nH]c3ccccc23)C(=O)O)cc1` [Ex.27 (CR508), N-p-carboxy-benzoyl-L-tryptophane], the ED50 stood at 406 mg/kg in data set [1] and 514 mg/kg in data set [3] (setting [5]). Moreover, the LD50 in data set [2] is 900 mg/kg.
On to `O=C(N[C@@H](Cc1c[nH]c2ccccc12)C(=O)O)OCc1cccc2ccccc12` [Ex.31 (CR514), N-(carbo-alpha-naphthyl-methoxy)-L-tryptophane], for which the ED50 in data set [1] is 94 mg/kg; in data set [3] (setting [5]), 128 mg/kg. In data set [2] (iv), the LD50 turned out to be 160 mg/kg.
Take `O=C(N[C@@H](Cc1c[nH]c2ccccc12)C(=O)Nc1ccc(C(=O)O)cc1)OCc1ccccc1` [Ex.43 (CR422), N-Carbobenzoxy-L-tryptophyl-p-aminobenzoic acid]: the values for the ED50 in data set [1] and in data set [3] (setting [5]) were 180 mg/kg and 321 mg/kg, respectively. In addition, the LD50 in data set [2] (iv) was found to be 460 mg/kg.
On the same counts, the results for `CN(C)CCOC(=O)[C@H](Cc1c[nH]c2ccccc12)NC(=O)OCc1ccc(Cl)cc1` [Ex.48 (CR583), Dimethylaminoester of N-p-chlorocarbobenzoxy-L-trytophane hydrochloride] are 121 mg/kg, 170 mg/kg and 210 mg/kg.
